# Measurements reported in US11033550B2, “Medicament” (TAKEDA PHARMACEUTICAL COMPANY LIMITED, priority 2016, dated 2021).
# Legend:
# [1] = Non Patent Literature 7; cited from earlier work
# [2] = tested on: monocrotaline-induced pulmonary hypertensive rat models; test: Survival rate (Kaplan-Meier) in monocrotaline-induced pulmonary hypertensive rat models; assay type: in vivo; conditions: 1, 3 or 10 mg/kg orally once every day over 14 days from 14th day after MCT; result in words
# Method: (§1) Monocrotaline (MCT) was subcutaneously injected at 50 mg/kg (in 50% dimethyl sulfoxide solution) to male Sprague-Dawley rats having a body weight of 230 g ± 10 g to prepare pulmonary hypertensive rat models. Compound A′ and the same amount of a vehicle were orally administered to a compound A′ administration group (dose: 1 mg/kg, 3 mg/kg, or 10 mg/kg) and a control group, respectively, once every day over 14 days from the 14th day after the MCT administration. This experiment was carried out using these groups each involving 12 rats. • (2) Effect on Survival Rate
# [3] = tested on: monocrotaline-induced pulmonary hypertensive rat model; test: Pulmonary artery medial wall thickening (Elastica van Gieson staining) in monocrotaline-induced pulmonary hypertensive rat model; assay type: in vivo; conditions: for Thickness of pulmonary artery medial wall: 10 mg/kg orally, 28 days after MCT, mean
# Method: as §1, with “250” for “230”, “10%” for “10 g”, “respectively,” for “respectively, once”, “9 rats (12 rats were used only in a vehicle control group).” for “12 rats.”, “Right Ventricular Pressure (RVP)” for “Survival Rate”
# (§2) Concerning the pulmonary hypertensive rat models that survived at 28 days after MCT administration (negative control group (monocrotaline non-administered group), 9 rats; vehicle control group, 8 rats; compound A′ 10 mg/kg administration group, 9 rats), tissue specimens of pulmonary tissue sections were prepared from 5 rats per group (total 15 rats) by Elastica van Gieson staining method to measure the thickening of the medial wall of the pulmonary artery.
# [4] = tested on: monocrotaline-induced pulmonary hypertensive rat model; test: Right ventricular hypertrophy, RV/(LV+S), in monocrotaline-induced pulmonary hypertensive rat model; assay type: in vivo; conditions: for RV/(LV + S): 28 days after MCT, index for right cardiomegaly, mean
# Method: as §1, with “250” for “230”, “10%” for “10 g”, “respectively,” for “respectively, once”, “9 rats (12 rats were used only in a vehicle control group).” for “12 rats.”, “Right Ventricular Pressure (RVP)” for “Survival Rate”
# The right ventricle weight (RV), left ventricle weight (LV), and interventricular septum weight (S) were measured for pulmonary hypertensive rat models that survived at 28 days after MCT administration (negative control group (monocrotaline non-administered group), 9 rats; vehicle control group, 8 rats; compound A′ 1 mg/kg administration group, 9 rats; compound A′ 3 mg/kg administration group, 5 rats; compound A′ 10 mg/kg administration group, 9 rats; total 40 rats)), and RV/(LV+S) was determined as an index for right cardiomegaly.
# [5] = tested on: monocrotaline-induced pulmonary hypertensive rat model; test: Right ventricular systolic pressure (RVSP) by catheterization in monocrotaline-induced pulmonary hypertensive rat model; assay type: in vivo; conditions: for RVSP: measured 28 days after MCT, mean
# Method: as §1, with “250” for “230”, “10%” for “10 g”, “respectively,” for “respectively, once”, “9 rats (12 rats were used only in a vehicle control group).” for “12 rats.”, “Right Ventricular Pressure (RVP)” for “Survival Rate”
# (§3) The right ventricular systolic pressure (RVSP) was measured by catheterization for the rats that survived at 28 days after MCT administration ((negative control group (monocrotaline non-administered group), 9 rats; vehicle control group, 8 rats; compound A′ 1 mg/kg administration group, 9 rats; compound A′ 3 mg/kg administration group, 5 rats; compound A′ 10 mg/kg administration group, 9 rats; total 40 rats)).
# [6] = tested on: monocrotaline-induced pulmonary hypertensive rat model; test: Pulmonary artery occlusion index (Elastica van Gieson staining) in monocrotaline-induced pulmonary hypertensive rat model; assay type: in vivo; conditions: for Pulmonary artery occlusion: 10 mg/kg orally, 28 days after MCT, twice medial wall thickness divided by artery diameter, mean
# Method: as §1, with “250” for “230”, “10%” for “10 g”, “respectively,” for “respectively, once”, “9 rats (12 rats were used only in a vehicle control group).” for “12 rats.”, “Right Ventricular Pressure (RVP)” for “Survival Rate”
# as §2, with “occlusion” for “the thickening of the medial wall”, “artery. A value obtained by dividing a value that is twice as much as the thickness of the pulmonary artery medial wall by the diameter of the pulmonary artery was used as an index of occlusion.” for “artery.”
# [7] = biological target: T1, interaction between human NHE1 and human CHP1 (Homo sapiens, UniProt P19634+Q99653); test: CHP1-NHE1 interaction, AlphaScreen protein interaction measurement system; assay type: binding
# T1 construct: made in house; host or cells: NHE1: FreeStyle 293 cells (microsomal fraction); CHP1: wheat germ cell-free translation system
# Method: The inhibitory activity of compound A′ on the interaction between human NHE1 and human CHP1 was evaluated in a protein interaction measurement system using an amplified luminescence proximity homogeneous assay (AlphaScreen™ (PerkinElmer)). A microsomal fraction of FLAG-tagged full-length human NHE1 (Accession No. NM 003047) was prepared by being expressed in human embryonic kidney cell-derived FreeStyle™ 293 cells. Also, biotinylated full-length human CHP1 (Accession No. NM 007236) was expressed in a wheat germ cell-free translation system and purified. The NHE1 microsomal fraction and CHP 1 were diluted with an assay buffer (25 mM Tris-HCl (pH 7.4), 137 mM NaCl, 2.7 mM KCl, 0.1% BSA, 1 mM DTT), and compound A′ was added thereto. Then, the mixture was added to an Alpha Plate-384 Shallow Well (Perkin Elmer) in an amount of 2 μL/well, and reacted at room temperature for 60 minutes. Acceptor Beads and Donor Beads accompanying an AlphaScreen FLAG(M2) Detection Kit (PerkinElmer) were added thereto each in an amount of 2 μL/well, and the mixture was reacted at room temperature for 60 minutes. Thereafter, the AlphaScreen signal intensity was measured using an EnSpire Multi-label reader (PerkinElmer). Different concentrations of compound A′ (concentration: 50.0 nM to 0.8 nM) were evaluated in this test system. • (2) Results
# [8] = biological target: T2, calcium-sensing receptor (CaSR) (Homo sapiens, UniProt P41180); conditions: Non Patent Literature 6; cited from earlier work
# T2 sequence (P41180 20-1078): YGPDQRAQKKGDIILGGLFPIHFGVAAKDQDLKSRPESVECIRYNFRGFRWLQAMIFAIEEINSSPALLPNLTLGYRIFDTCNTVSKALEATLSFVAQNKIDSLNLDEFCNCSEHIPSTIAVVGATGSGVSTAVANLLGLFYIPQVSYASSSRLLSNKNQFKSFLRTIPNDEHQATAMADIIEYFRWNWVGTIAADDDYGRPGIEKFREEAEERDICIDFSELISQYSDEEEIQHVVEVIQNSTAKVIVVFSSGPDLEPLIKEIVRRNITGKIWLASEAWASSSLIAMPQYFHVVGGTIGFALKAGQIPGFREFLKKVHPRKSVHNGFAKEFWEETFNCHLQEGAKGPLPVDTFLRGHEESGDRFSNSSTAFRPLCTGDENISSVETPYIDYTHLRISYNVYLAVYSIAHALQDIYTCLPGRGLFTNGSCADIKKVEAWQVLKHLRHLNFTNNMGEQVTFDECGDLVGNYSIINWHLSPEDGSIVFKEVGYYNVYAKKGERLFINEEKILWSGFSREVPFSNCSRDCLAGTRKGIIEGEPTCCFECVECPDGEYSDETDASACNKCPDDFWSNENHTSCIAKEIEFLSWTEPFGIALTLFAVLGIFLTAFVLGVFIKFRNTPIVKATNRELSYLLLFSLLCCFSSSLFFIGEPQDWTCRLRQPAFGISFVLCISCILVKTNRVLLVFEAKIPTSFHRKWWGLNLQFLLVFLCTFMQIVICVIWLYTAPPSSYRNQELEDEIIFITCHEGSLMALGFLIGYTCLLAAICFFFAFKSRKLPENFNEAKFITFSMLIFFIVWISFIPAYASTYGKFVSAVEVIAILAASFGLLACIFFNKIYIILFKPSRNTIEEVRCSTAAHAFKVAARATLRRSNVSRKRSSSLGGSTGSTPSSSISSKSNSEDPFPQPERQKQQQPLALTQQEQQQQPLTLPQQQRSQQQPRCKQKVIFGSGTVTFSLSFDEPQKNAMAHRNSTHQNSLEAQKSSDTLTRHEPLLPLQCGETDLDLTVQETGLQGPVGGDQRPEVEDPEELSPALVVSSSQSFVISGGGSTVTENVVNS
# [9] = tested on: monocrotaline-induced pulmonary hypertensive rat model; test: Right ventricular pressure (RVP) by catheterization in monocrotaline-induced pulmonary hypertensive rat model; assay type: in vivo; conditions: for RVP: measured 28 days after MCT, mean
# Method: as §1, with “250” for “230”, “10%” for “10 g”, “respectively,” for “respectively, once”, “9 rats (12 rats were used only in a vehicle control group).” for “12 rats.”, “Right Ventricular Pressure (RVP)” for “Survival Rate”
# as §3, with “ventricular” for “ventricular systolic”, “(RVP)” for “(RVSP)”, “(negative” for “((negative”, “rats).” for “rats)).”
# [10] = tested on: hypoxia-induced pulmonary hypertensive (HPH) mice; conditions: Non Patent Literatures 1 to 5; cited from earlier work
# [11] = tested on: monocrotaline (MCT)-induced pulmonary hypertensive rats; conditions: Non Patent Literatures 1 to 5; cited from earlier work
# [12] = Diameter of pulmonary artery (<50 μM)
# [13] = 1 mg/kg orally every day over 14 days from 14th day after MCT
# [14] = 3 mg/kg orally every day over 14 days from 14th day after MCT
# [15] = 10 mg/kg orally every day over 14 days from 14th day after MCT
# T1 sequence (P19634 whole entry): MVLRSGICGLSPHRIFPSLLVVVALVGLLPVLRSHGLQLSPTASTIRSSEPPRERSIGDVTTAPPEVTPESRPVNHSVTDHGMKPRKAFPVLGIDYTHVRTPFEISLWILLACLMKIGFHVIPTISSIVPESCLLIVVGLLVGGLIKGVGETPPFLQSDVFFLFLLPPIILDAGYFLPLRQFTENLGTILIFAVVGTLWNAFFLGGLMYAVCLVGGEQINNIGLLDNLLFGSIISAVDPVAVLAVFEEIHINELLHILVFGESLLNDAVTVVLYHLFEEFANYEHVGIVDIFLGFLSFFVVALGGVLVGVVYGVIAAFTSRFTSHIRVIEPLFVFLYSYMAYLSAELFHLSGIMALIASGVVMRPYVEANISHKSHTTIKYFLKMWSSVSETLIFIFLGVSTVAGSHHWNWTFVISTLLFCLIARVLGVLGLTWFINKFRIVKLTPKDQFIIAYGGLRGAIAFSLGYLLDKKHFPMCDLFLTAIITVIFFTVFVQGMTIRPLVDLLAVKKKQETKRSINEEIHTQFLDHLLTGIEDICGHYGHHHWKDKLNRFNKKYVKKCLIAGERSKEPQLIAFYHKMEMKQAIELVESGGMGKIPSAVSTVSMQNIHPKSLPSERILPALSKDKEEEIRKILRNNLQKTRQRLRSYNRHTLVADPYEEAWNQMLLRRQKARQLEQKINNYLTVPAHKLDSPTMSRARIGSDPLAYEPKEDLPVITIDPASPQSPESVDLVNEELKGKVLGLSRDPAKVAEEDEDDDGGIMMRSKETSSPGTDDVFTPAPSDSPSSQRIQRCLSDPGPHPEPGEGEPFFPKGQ
# T1 sequence (Q99653 whole entry): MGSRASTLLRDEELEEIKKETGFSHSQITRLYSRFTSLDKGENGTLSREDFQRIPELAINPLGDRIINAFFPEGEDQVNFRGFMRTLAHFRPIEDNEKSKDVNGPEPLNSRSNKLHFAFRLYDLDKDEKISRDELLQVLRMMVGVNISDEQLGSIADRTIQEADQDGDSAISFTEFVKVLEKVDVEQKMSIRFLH
smiles,measurement,setting,value
C[C@@H](N[C@H]1CCCC[C@@H]1NC(=O)c1ccc(Cl)cc1)c1cccc2ccccc12 [Calhex 231],Effect on the action of an existing PAH drug (PDE 5 inhibitor/sildenafil),[1],enhance the effect
"CCc1ccc(C(CC)(CC)NC(=O)c2c(C)nn3c2N[C@@H](c2ccccc2)CC3(C)C)cc1 [Compound A′, (5R)-N-[1-Ethyl-1-(4-ethylphenyl)propyl]-2,7,7-trimethyl-5-phenyl-4,5,6,7-tetrahydropyrazolo[1,5-a]pyrimidine-3-carboxamide]","Effect on survival rate (Kaplan-Meier survival curve, FIG. 1)",[2],remarkably improved the survival rate
same,Thickness of pulmonary artery medial wall,[3]; Diameter of pulmonary artery (50 μM-100 μM),6.86
same,Thickness of pulmonary artery medial wall,[3]; [12],4.28
same,"Effect on thickening of the pulmonary artery medial wall, in words","[3]; at 28 days after MCT administration, summary of Table 4",remarkably improved
same,RV/(LV + S),[4]; [13],0.333
same,RV/(LV + S),[4]; [14],0.307
same,RV/(LV + S),[4]; [15],0.282
same,"Effect on right ventricular hypertrophy, in words","[4]; at 28 days after MCT administration, summary of Table 3",remarkably improved
same,RVSP,[5]; [13],48.3 mmHg
same,RVSP,[5]; [14],39.1 mmHg
same,RVSP,[5]; [15],28.0 mmHg
same,"Effect on right ventricular systolic pressure (RVSP), in words","[5]; at 28 days after MCT administration, summary of Table 2",remarkably improved
same,Pulmonary artery occlusion,[6]; [12],0.20
same,Pulmonary artery occlusion,[6]; Diameter of pulmonary artery,0.19
same,"Effect on occlusion of the pulmonary artery, in words","[6]; at 28 days after MCT administration, summary of Table 5",remarkably improved
same,IC50,"[7]; AlphaScreen, FLAG-tagged human NHE1 microsomal fraction and biotinylated human CHP1, 50.0 nM to 0.8 nM tested, read-out: CHP1-NHE1 interaction activity (50% inhibitory concentration)",4.7 nM
same,"CHP1-NHE1 inhibitory activity, in words",[7]; summary of Table 6,remarkable CHP1-NHE1 inhibitory activity
same,Activity at CaSR,[8],CaSR antagonist
same,RVP,[9]; [13],26.4 mmHg
same,RVP,[9]; [14],22.4 mmHg
same,RVP,[9]; [15],17.8 mmHg
same,"Effect on right ventricular pressure, in words","[9]; at 28 days after MCT administration, summary of Table 1",remarkably improved
CC(C)(Cc1ccc2ccccc2c1)NC[C@@H](O)COc1cccc(Cl)c1C#N [NPS-2143],Reported effects on pulmonary hypertension pathology,[10],"inhibit cardiac hypertrophy, a rise in right ventricular systolic pressure, myocardial tissue fibrosis, and pulmonary vascular remodeling"
same,Reported effects on pulmonary hypertension pathology,[11],"inhibit cardiac hypertrophy, a rise in right ventricular systolic pressure, myocardial tissue fibrosis, and pulmonary vascular remodeling"
same,Effect on the action of an existing PAH drug (PDE 5 inhibitor/sildenafil),[1],enhance the effect
